From ChEMBL document CHEMBL4814018, “Rationally designed TNF-α inhibitors: Identification of promising cytotoxic agents” (Bioorg Med Chem Lett, 2021)
Activity calls are given as the source filed them. The rule behind the calls is not given here.

Columns and labels:
BV-2 [1] = assay: Cytotoxicity against mouse BV2 cells incubated for 48 hrs by MTT assay; assay type: cell-based; conditions: BV-2, 48 h
BV-2 [2] = assay: Antiinflammatory activity against mouse BV2 cells assessed as reduction in LPS-induced IL6 production at 1 uM by enzyme immunoassay; assay type: functional, cell-based
BV-2 [3] = assay: Antiinflammatory activity against mouse BV2 cells assessed as inhibition of LPS-induced TNFalpha production at 1 uM by enzyme immunoassay; assay type: functional

| Structure (SMILES) | IC50 (BV-2 [1]) | Activity (BV-2 [2]) | Activity (BV-2 [3]) |
| --- | --- | --- | --- |
| O=C1COCCN1c1ccc(N2C(=O)C(Cl)C2c2cn(Cc3ccccc3)c3ccccc23)cc1 (centres undefined) | > 10 µM | – | – |
| O=C1COCCN1c1ccc(N2C(=O)C(Cl)C2c2cn(Cc3ccc4ccccc4c3)c3ccccc23)cc1 (centres undefined) | > 10 µM | Active | Active |
